Results on 7 compounds are retold here after US7067112B2, “Cephaibols: novel antiparasitics from Acremonium tubakii, process for their production, and use thereof” (Sanofi-Aventis Deutschland GmbH, priority 1999, dated 2006).

Square brackets hold non-standard residues; d marks the D form. Peptide text beside a SMILES is read from it. Hyp = O=C(O)[CH]1C[CH](O)CN1; Phe(ol) = N[CH](CO)Cc1ccccc1; Iva = CC[C](C)(N)C(=O)O; Aib = CC(C)(N)C(=O)O

A short description of data set [1]: solubility (physicochemical properties). The text has this:
(§1) The physicochemical and spectroscopic properties of the cephaibols according to the invention can be summarized as follows: […]

The nature of data set [2]: stability (physicochemical properties). To be noted: in neutral, mildly acidic and mildly alkaline medium.
From the text: as §1

On to `CC(=O)NC(Cc1ccccc1)C(=O)NC(C)(C)C(=O)NC(C)(C)C(=O)NC(C)(C)C(=O)NC(C)(C)C(=O)NCC(=O)NC(CC(C)C)C(=O)NC(C)(C)C(=O)NC(C)(C)C(=O)N1CC(O)CC1C(=O)NC(CCC(N)=O)C(=O)NC(C)(C)C(=O)N1CC(O)CC1C(=O)NC(C)(C)C(=O)N1CCCC1C(=O)NC(CO)Cc1ccccc1` (stereo not drawn) [Cephaibol D, AcPhe-Aib-Aib-Aib-Aib-Gly-Leu-Aib-Aib-Hyp-Gln-Aib-Hyp-Aib-Pro-Phe-ol] (Ac-F[Aib][Aib][Aib][Aib]GL[Aib][Aib][Hyp]Q[Aib][Hyp][Aib]P[Phe(ol)]; configuration not given here), for which, in data set [1], the “solubility in polar organic solvents” value is given as “soluble” and the solubility in water result was “only slightly soluble”. The stability entry in data set [2] is “stable”.
Taken in the same sequence, the figures for `CCC(C)(NC(=O)C(CC(C)C)NC(=O)C(C)NC(=O)C(C)(C)NC(=O)C(C)(C)NC(=O)C(C)(C)NC(=O)C(C)(C)NC(=O)C(Cc1ccccc1)NC(C)=O)C(=O)NC(C)(C)C(=O)N1CC(O)CC1C(=O)NC(CCC(N)=O)C(=O)NC(C)(CC)C(=O)N1CC(O)CC1C(=O)NC(C)(C)C(=O)N1CCCC1C(=O)NC(CO)Cc1ccccc1` (stereo not drawn) [Cephaibol A1, AcPhe-Aib-Aib-Aib-Aib-Ala-Leu-Iva-Aib-Hyp-Gln-Iva-Hyp-Aib-Pro-Phe-ol] (Ac-F[Aib][Aib][Aib][Aib]AL[Iva][Aib][Hyp]Q[Iva][Hyp][Aib]P[Phe(ol)]; configuration not given here) were “soluble”, “only slightly soluble” and “stable”.
Take `CCC(C)C(NC(=O)C(C)(C)NC(=O)C(CCC(N)=O)NC(=O)C(C)(CC)NC(=O)C(Cc1ccccc1)NC(C)=O)C(=O)NC(C(=O)NC(C)(C)C(=O)NC(CC(C)C)C(=O)NC(C)(C)C(=O)N1CCCC1C(=O)NC(CCC(N)=O)C(=O)NC(C)(C)C(=O)N1CC(O)CC1C(=O)NC(C)(C)C(=O)N1CCCC1C(=O)NC(Cc1ccccc1)C(=O)NC(CO)C(=O)O)C(C)O` (stereo not drawn) [Cephaibol Q, AcPhe-Iva-Gln-Aib-Ile-Thr-Aib-Leu-Aib-Pro-Gln-Aib-Hyp-Aib-Pro-Phe-Ser] (Ac-F[Iva]Q[Aib]IT[Aib]L[Aib]PQ[Aib][Hyp][Aib]PFS-OH; configuration not given here): in data set [1], the “solubility in polar organic solvents” value was “soluble” and the solubility in water result is listed as “only slightly soluble”. Moreover, the stability entry in data set [2] is “stable”.
Taken in the same sequence, the figures for `CCC(C)(NC(=O)C(CCC(N)=O)NC(=O)C1CC(O)CN1C(=O)C(C)(C)NC(=O)C(C)(C)NC(=O)C(CC(C)C)NC(=O)CNC(=O)C(C)(C)NC(=O)C(C)(C)NC(=O)C(C)(C)NC(=O)C(C)(C)NC(=O)C(Cc1ccccc1)NC(C)=O)C(=O)N1CC(O)CC1C(=O)NC(C)(C)C(=O)N1CCCC1C(=O)NC(CO)Cc1ccccc1` (stereo not drawn) [Cephaibol E, AcPhe-Aib-Aib-Aib-Aib-Gly-Leu-Aib-Aib-Hyp-Gln-Iva-Hyp-Aib-Pro-Phe-ol] (Ac-F[Aib][Aib][Aib][Aib]GL[Aib][Aib][Hyp]Q[Iva][Hyp][Aib]P[Phe(ol)]; configuration not given here) were “soluble”, “only slightly soluble” and “stable”.
Consider `CCC(C)(NC(=O)C(CC(C)C)NC(=O)CNC(=O)C(C)(CC)NC(=O)C(C)(C)NC(=O)C(C)(C)NC(=O)C(C)(C)NC(=O)C(Cc1ccccc1)NC(C)=O)C(=O)NC(C)(C)C(=O)N1CC(O)CC1C(=O)NC(CCC(N)=O)C(=O)NC(C)(CC)C(=O)N1CC(O)CC1C(=O)NC(C)(C)C(=O)N1CCCC1C(=O)NC(CO)Cc1ccccc1` (stereo not drawn) [Cephaibol B, AcPhe-Aib-Aib-Aib-Iva-Gly-Leu-Iva-Aib-Hyp-Gln-Iva-Hyp-Aib-Pro-Phe-ol] (Ac-F[Aib][Aib][Aib][Iva]GL[Iva][Aib][Hyp]Q[Iva][Hyp][Aib]P[Phe(ol)]; configuration not given here), for which, in data set [1], the “solubility in polar organic solvents” value is recorded as “soluble” and the solubility in water entry is “only slightly soluble”. Moreover, the stability result in data set [2] is reported as “stable”.
On the same counts, the results for `CCC(C)(NC(=O)C(CC(C)C)NC(=O)CNC(=O)C(C)(C)NC(=O)C(C)(C)NC(=O)C(C)(C)NC(=O)C(C)(C)NC(=O)C(Cc1ccccc1)NC(C)=O)C(=O)NC(C)(C)C(=O)N1CC(O)CC1C(=O)NC(CCC(N)=O)C(=O)NC(C)(C)C(=O)N1CC(O)CC1C(=O)NC(C)(C)C(=O)N1CCCC1C(=O)NC(CO)Cc1ccccc1` (stereo not drawn) [Cephaibol C, AcPhe-Aib-Aib-Aib-Aib-Gly-Leu-Iva-Aib-Hyp-Gln-Aib-Hyp-Aib-Pro-Phe-ol] (Ac-F[Aib][Aib][Aib][Aib]GL[Iva][Aib][Hyp]Q[Aib][Hyp][Aib]P[Phe(ol)]; configuration not given here) are “soluble”, “only slightly soluble” and “stable”.
With `CCC(C)C(NC(=O)C(C)(C)NC(=O)C(CCC(N)=O)NC(=O)C(C)(CC)NC(=O)C(Cc1ccccc1)NC(C)=O)C(=O)NC(C(=O)NC(C)(C)C(=O)NC(CC(C)C)C(=O)NC(C)(C)C(=O)N1CC(O)CC1C(=O)NC(CCC(N)=O)C(=O)NC(C)(C)C(=O)N1CC(O)CC1C(=O)NC(C)(C)C(=O)N1CCCC1C(=O)NC(Cc1ccccc1)C(=O)NC(CO)C(=O)O)C(C)O` (stereo not drawn) [Cephaibol P, AcPhe-Iva-Gln-Aib-Ile-Thr-Aib-Leu-Aib-Hyp-Gln-Aib-Hyp-Aib-Pro-Phe-Ser] (Ac-F[Iva]Q[Aib]IT[Aib]L[Aib][Hyp]Q[Aib][Hyp][Aib]PFS-OH; configuration not given here), in data set [1], the “solubility in polar organic solvents” value is listed as “soluble” and the solubility in water result is given as “only slightly soluble”. For the same compound, the stability entry in data set [2] is “stable”.
